Columns and labels:
rat NaPi-2b = biological target: T1, rat NaPi-2b (Rattus norvegicus, UniProt Q9JJ09); assay: Sodium-dependent phosphate uptake of Xenopus oocytes which expressed NaPi-2b (32P); type: cell-based; conditions: Xenopus oocytes expressing rat NaPi-2b, 32P radioactive phosphorus; read-out: IC50 (phosphate uptake inhibitory activity)
T1 construct: expressed in transfected cells; host or cells: Xenopus oocytes injected with cRNA
T1 sequence (Q9JJ09 1-695): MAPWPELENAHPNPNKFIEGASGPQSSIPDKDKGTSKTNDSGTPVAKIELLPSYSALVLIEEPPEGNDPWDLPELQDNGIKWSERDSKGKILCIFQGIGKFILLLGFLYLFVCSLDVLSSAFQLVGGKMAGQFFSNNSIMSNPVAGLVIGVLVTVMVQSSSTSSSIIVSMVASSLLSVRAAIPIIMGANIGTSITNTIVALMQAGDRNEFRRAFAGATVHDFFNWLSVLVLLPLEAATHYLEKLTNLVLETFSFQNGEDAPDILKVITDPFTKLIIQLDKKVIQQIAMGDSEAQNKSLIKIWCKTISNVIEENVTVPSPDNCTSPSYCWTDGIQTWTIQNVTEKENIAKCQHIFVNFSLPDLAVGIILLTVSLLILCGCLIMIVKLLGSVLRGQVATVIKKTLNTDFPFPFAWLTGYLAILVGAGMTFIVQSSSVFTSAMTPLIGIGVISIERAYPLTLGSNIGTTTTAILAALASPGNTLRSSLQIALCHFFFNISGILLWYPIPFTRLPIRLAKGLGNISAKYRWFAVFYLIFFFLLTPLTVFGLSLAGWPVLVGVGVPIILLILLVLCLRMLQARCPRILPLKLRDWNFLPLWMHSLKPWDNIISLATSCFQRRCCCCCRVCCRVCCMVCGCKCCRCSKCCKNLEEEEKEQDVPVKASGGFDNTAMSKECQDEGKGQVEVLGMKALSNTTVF
In short: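 Rat small-intestine NaPi-2b cRNA injected into Xenopus oocytes, expressed for 2 days. Sodium-dependent phosphate uptake measured with 32P; % inhibition at 300 and 100 μM taken from the same inhibition curve.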

human NaPi-2a = biological target: T2, human NaPi-2a (Homo sapiens, UniProt Q06495); assay: Sodium-dependent phosphate uptake of Xenopus oocytes which expressed NaPi-2a (32P); type: cell-based; conditions: phosphate uptake, Xenopus oocytes expressing human NaPi-2a; five concentration levels
T2 construct: expressed in transfected cells
T2 sequence (Q06495 1-639): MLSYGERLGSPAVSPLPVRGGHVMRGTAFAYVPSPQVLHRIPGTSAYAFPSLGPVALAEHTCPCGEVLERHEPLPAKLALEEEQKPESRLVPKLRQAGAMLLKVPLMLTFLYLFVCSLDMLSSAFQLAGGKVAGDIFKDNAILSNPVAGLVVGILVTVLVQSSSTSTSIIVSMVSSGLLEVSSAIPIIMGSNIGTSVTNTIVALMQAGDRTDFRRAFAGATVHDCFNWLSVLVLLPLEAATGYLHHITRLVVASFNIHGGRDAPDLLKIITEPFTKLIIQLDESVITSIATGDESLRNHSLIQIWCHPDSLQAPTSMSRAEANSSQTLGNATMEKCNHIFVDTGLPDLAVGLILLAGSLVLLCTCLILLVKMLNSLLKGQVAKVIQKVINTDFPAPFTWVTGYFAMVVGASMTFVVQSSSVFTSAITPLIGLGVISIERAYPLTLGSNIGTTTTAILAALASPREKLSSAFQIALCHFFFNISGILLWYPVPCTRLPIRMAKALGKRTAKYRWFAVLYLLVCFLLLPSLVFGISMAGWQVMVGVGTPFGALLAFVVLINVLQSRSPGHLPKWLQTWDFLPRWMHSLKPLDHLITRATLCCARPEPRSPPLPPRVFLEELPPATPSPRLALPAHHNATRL
Excerpt: Experiment of Sodium-Dependent Phosphate Uptake of Xenopus oocytes which Expressed NaPi-2a
In the test, a group with the addition of choline chloride (Choline Cl) was used as a negative control for nonspecific uptake, and PFA (phosphonoformic acid) was used as a positive control for phosphate transport inhibition.

Row | SMILES | IC50 (rat NaPi-2b) [nM] | IC50 (human NaPi-2a) [nM]
1 | CCN(CC)CCN(C)Cc1cccc(C(=O)Nc2ccc(N3CCCCC3)cc2C(=O)N/N=C/c2ccc(OC)cc2)c1 [Compound 863, 3-{[(2-Diethylamino-ethyl)-methyl-amino]-methyl}-N-[2-(4-methoxy-benzylidene-hydrazinocarbonyl)-4-piperidin-1-yl-phenyl]-benzamide] | 1220 | 6900
2 | Cc1ccc(/C=N/NC(=O)c2cc(N3CCCCC3)ccc2NC(=O)c2cccc(CN3CCN(CCO)CC3)c2)cc1C [Compound 864, N-[2-(3,4-Dimethyl-benzylidene-hydrazinocarbonyl)-4-piperidin-1-yl-phenyl]-3-[4-(2-hydroxy-ethyl)-piperazin-1-ylmethyl]-benzamide] | 740 | 1940
3 | Cc1ccc(/C=N/NC(=O)c2cc(N3CCCCC3)ccc2NC(=O)c2cccc(CN3CCN(CCO)CC3)c2)cc1 [Compound 865, 3-[4-(2-Hydroxy-ethyl)-piperazin-1-ylmethyl]-N-[2-(4-methyl-benzylidene-hydrazinocarbonyl)-4-piperidin-1-yl-phenyl]-benzamide] | 1490 | 4340
4 | CCN(CC)CCSCc1cccc(C(=O)Nc2ccc(N3CCCCC3)cc2C(=O)N/N=C/c2ccc(Cl)c(C(F)(F)F)c2)c1 [Compound 878, N-[2-(4-Chloro-3-trifluoromethyl-benzylidene-hydrazinocarbonyl)-4-piperidin-1-yl-phenyl]-3-(2-diethylamino-ethylsulfanylmethyl)-benzamide] | < 300 | 7220
5 | Cc1ccc(/C=N/NC(=O)c2cc(N3CCCCC3)ccc2NC(=O)c2cccc(CSCCO)c2)cc1C [Compound 880, N-[2-(3,4-Dimethyl-benzylidene-hydrazinocarbonyl)-4-piperidin-1-yl-phenyl]-3-(2-hydroxy-ethylsulfanylmethyl)-benzamide] | 80 | 1300
6 | Cc1ccc(/C=N/NC(=O)c2cc(N3CCCCC3)ccc2NC(=O)c2cccc(CSCCO)c2)cc1 [Compound 881, 3-(2-Hydroxy-ethylsulfanylmethyl)-N-[2-(4-methyl-benzylidene-hydrazinocarbonyl)-4-piperidin-1-yl-phenyl]-benzamide] | 180 | 2670
7 | O=C(Nc1ccc(N2CCCCC2)cc1C(=O)N/N=C/c1ccc(F)cc1)c1cccc(CSCCO)c1 [Compound 882, N-[2-(4-Fluoro-benzylidene-hydrazinocarbonyl)-4-piperidin-1-yl-phenyl]-3-(2-hydroxy-ethylsulfanylmethyl)-benzamide] | 330 | 4450
8 | O=C(Nc1ccc(N2CCCCC2)cc1C(=O)N/N=C/c1cccc(F)c1)c1cccc(CSCCO)c1 [Compound 883, N-[2-(3-Fluoro-benzylidene-hydrazinocarbonyl)-4-piperidin-1-yl-phenyl]-3-(2-hydroxy-ethylsulfanylmethyl)-benzamide] | 40 | 1980
9 | O=C(Nc1ccc(N2CCCCC2)cc1C(=O)N/N=C/c1ccc(Cl)c(C(F)(F)F)c1)c1cccc(CSCCO)c1 [Compound 884, N-[2-(4-Chloro-3-trifluoromethyl-benzylidene-hydrazinocarbonyl)-4-piperidin-1-yl-phenyl]-3-(2-hydroxy-ethylsulfanylmethyl)-benzamide] | 950 | 35900
10 | Cc1ccc(/C=N/NC(=O)c2cc(N3CCCCC3)ccc2NC(=O)c2cccc(CSCCC(=O)O)c2)cc1C [Compound 886, 3-{3-[2-(3,4-Dimethyl-benzylidene-hydrazinocarbonyl)-4-piperidin-1-yl-phenylcarbamoyl]-benzylsulfanyl}-propionic acid] | 810 | 2930
11 | Cc1ccc(/C=N/NC(=O)c2cc(N3CCCCC3)ccc2NC(=O)c2cccc(CSCCC(=O)O)c2)cc1 [Compound 887, 3-{3-[2-(4-Methyl-benzylidene-hydrazinocarbonyl)-4-piperidin-1-yl-phenylcarbamoyl]-benzylsulfanyl}-propionic acid] | 1750 | 15100
12 | O=C(O)CCSCc1cccc(C(=O)Nc2ccc(N3CCCCC3)cc2C(=O)N/N=C/c2ccc(Cl)c(C(F)(F)F)c2)c1 [Compound 889, 3-{3-[2-(4-Chloro-3-trifluoromethyl-benzylidene-hydrazinocarbonyl)-4-piperidin-1-yl-phenylcarbamoyl]-benzylsulfanyl}-propionic acid] | 330 | 1410
13 | COc1ccc(/C=N/NC(=O)c2cc(N3CCCCC3)ccc2NC(=O)c2cccc(CSCCC(=O)O)c2)cc1 [Compound 890, 3-{3-[2-(4-Methoxy-benzylidene-hydrazinocarbonyl)-4-piperidin-1-yl-phenylcarbamoyl]-benzylsulfanyl}-propionic acid] | 3910 | 1330
14 | O=C(O)CSCc1cccc(C(=O)Nc2ccc(N3CCCCC3)cc2C(=O)N/N=C/c2ccc(Cl)c(C(F)(F)F)c2)c1 [Compound 891, {3-[2-(4-Chloro-3-trifluoromethyl-benzylidene-hydrazinocarbonyl)-4-piperidin-1-yl-phenylcarbamoyl]-benzylsulfanyl}-acetic acid] | 1470 | 13900
15 | Cc1ccc(/C=N/NC(=O)c2cc(N3CCCCC3)ccc2NC(=O)c2cccc(CN3CCc4nc5ncccc5cc4C3)c2)cc1C [Compound 893, 3-(7,8-Dihydro-5H-1,6,9-triaza-anthracen-6-ylmethyl)-N-[2-(3,4-dimethyl-benzylidene-hydrazinocarbonyl)-4-piperidin-1-yl-phenyl]-benzamide] | < 300 | 5110
16 | Cc1ccc(/C=N/NC(=O)c2cc(N3CCCCC3)ccc2NC(=O)c2cccc(CN3CCc4nc5ncccc5cc4C3)c2)cc1 [Compound 894, 3-(7,8-Dihydro-5H-1,6,9-triaza-anthracen-6-ylmethyl)-N-[2-(4-methyl-benzylidene-hydrazinocarbonyl)-4-piperidin-1-yl-phenyl]-benzamide] | 500 | 3610
17 | O=C(Nc1ccc(N2CCCCC2)cc1C(=O)N/N=C/c1ccc(F)cc1)c1cccc(CN2CCc3nc4ncccc4cc3C2)c1 [Compound 895, 3-(7,8-Dihydro-5H-1,6,9-triaza-anthracen-6-ylmethyl)-N-[2-(4-fluoro-benzylidene-hydrazinocarbonyl)-4-piperidin-1-yl-phenyl]-benzamide] | < 300 | 5520
18 | O=C(Nc1ccc(N2CCCCC2)cc1C(=O)N/N=C/c1cccc(F)c1)c1cccc(CN2CCc3nc4ncccc4cc3C2)c1 [Compound 896, 3-(7,8-Dihydro-5H-1,6,9-triaza-anthracen-6-ylmethyl)-N-[2-(3-fluoro-benzylidene-hydrazinocarbonyl)-4-piperidin-1-yl-phenyl]-benzamide] | < 300 | 7400
19 | Cc1ccc(/C=N/NC(=O)c2cc(N3CCCCC3)ccc2NC(=O)c2cccc(CSCC(O)CO)c2)cc1C (stereo not drawn) [Compound 899, 3-(2,3-Dihydroxy-propylsulfanylmethyl)-N-[2-(3,4-dimethyl-benzylidene-hydrazinocarbonyl)-4-piperidin-1-yl-phenyl]-benzamide] | < 1000 | < 1000
20 | Cc1ccc(/C=N/NC(=O)c2cc(N3CCCCC3)ccc2NC(=O)c2cccc(CSCC(O)CO)c2)cc1 (stereo not drawn) [Compound 900, 3-(2,3-Dihydroxy-propylsulfanylmethyl)-N-[2-(4-methyl-benzylidene-hydrazinocarbonyl)-4-piperidin-1-yl-phenyl]-benzamide] | < 1000 | 2530
21 | O=C(Nc1ccc(N2CCCCC2)cc1C(=O)N/N=C/c1ccc(F)cc1)c1cccc(CSCC(O)CO)c1 (stereo not drawn) [Compound 901, 3-(2,3-Dihydroxy-propylsulfanylmethyl)-N-[2-(4-fluoro-benzylidene-hydrazinocarbonyl)-4-piperidin-1-yl-phenyl]-benzamide] | < 1000 | < 1000

Source: patent US8134015B2, “Compound inhibiting in vivo phosphorous transport and medicine containing the same” (Kyowa Hakko Kirin Co., Ltd., priority 2003, dated 2012)
